Experimental data as given in PubChem BioAssay (NCI).
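Compound exposure: 48 hours, 5 concentrations, 96-well plates. GI50: concentration for 50% inhibition of growth. TGI denotes the concentration required for complete inhibition of growth.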

Columns and labels:
Experiment in all cases: NCI-60 cell line screen, 48 h
[1] = tested on: RXF 393 renal
[2] = tested on: SN12C renal
[3] = tested on: MOLT-4 leukemia
[4] = tested on: UACC-62 melanoma
[5] = tested on: SF-295 CNS
[6] = tested on: SK-MEL-5 melanoma
[7] = tested on: COLO 205 colon
[8] = tested on: T-47D breast
[9] = tested on: IGROV1 ovarian
[10] = tested on: HT29 colon
[11] = tested on: HOP-92 NSCLC
[12] = tested on: MDA-MB-231 breast
[13] = tested on: K-562 leukemia
[14] = tested on: LOX IMVI melanoma
[15] = tested on: HCT-15 colon
[16] = tested on: MCF7 breast
[17] = tested on: HCT-116 colon
[18] = tested on: OVCAR-3 ovarian
[19] = tested on: UACC-257 melanoma
[20] = tested on: HCC-2998 colon
[21] = tested on: SR leukemia
[22] = tested on: BT-549 breast
[23] = tested on: SF-268 CNS
[24] = tested on: A549 NSCLC
[25] = tested on: HS 578T breast
[26] = tested on: NCI/ADR-RES ovarian
[27] = tested on: NCI-H226 lung
[28] = tested on: OVCAR-5 ovarian
[29] = tested on: DU-145 prostate
[30] = tested on: HOP-62 NSCLC
[31] = tested on: TK-10 renal
[32] = tested on: U251 CNS
[33] = tested on: ACHN renal
[34] = tested on: NCI-H522 lung
[35] = tested on: PC-3 prostate
[36] = tested on: SF-539 CNS
[37] = tested on: HL-60(TB) leukemia
[38] = tested on: SK-MEL-2 melanoma
[39] = tested on: CAKI-1 renal
[40] = tested on: SK-OV-3 ovarian
[41] = tested on: OVCAR-4 ovarian
[42] = tested on: RPMI-8226 leukemia
[43] = tested on: 786-0 renal
[44] = tested on: CCRF-CEM leukemia
[45] = tested on: M14 melanoma
[46] = tested on: NCI-H460 lung
[47] = tested on: SK-MEL-28 melanoma
[48] = tested on: MDA-MB-435
[49] = tested on: NCI-H23 lung
[50] = tested on: A498 renal
[51] = tested on: EKVX NSCLC
[52] = tested on: UO-31 renal
[53] = tested on: OVCAR-8 ovarian
[54] = tested on: MALME-3M melanoma
[55] = tested on: SW-620 colon
[56] = tested on: KM12 colon
[57] = tested on: SNB-19 CNS
[58] = tested on: SNB-75 CNS

Work on `COc1ccc2[nH]cc(-c3nc(N)nnc3-c3cn(C)c4ccc(Br)cc34)c2c1` yielded a GI50 [1] of 1.8 µM, a TGI [1] of 4.68 µM and a GI50 [2] of 4.5 µM. For the same compound, the TGI [2] was 22.8 µM, the GI50 [3] was 3.73 µM and the TGI [3] was greater than 100 µM. It also gave a GI50 [4] of 1.86 µM, a TGI [4] of 11.5 µM and a GI50 [5] of 2.8 µM. For the same compound, the TGI [5] was 13 µM, the GI50 [6] was 2.58 µM and the TGI [6] was 8.5 µM. For the same compound, the GI50 [7] was 3.48 µM, the TGI [7] was 12.6 µM and the GI50 [8] was 3.31 µM. The TGI [8] was 30.1 µM, the GI50 [9] was 2.89 µM and the TGI [9] was 17.1 µM. It also gave a GI50 [10] of 2.69 µM, a TGI [10] of 12.1 µM and a GI50 [11] of 2.58 µM. The TGI [11] was 17.3 µM, the GI50 [12] was 4.48 µM and the TGI [12] was 28.3 µM. For the same compound, the GI50 [13] was 1.07 µM, the TGI [13] was greater than 100 µM and the GI50 [14] was 3.89 µM. For the same compound, the TGI [14] was 19.9 µM, the GI50 [15] was 2.86 µM and the TGI [15] was 22 µM. The GI50 [16] was 1.22 µM, the TGI [16] was 13.5 µM and the GI50 [17] was 3.7 µM. For the same compound, the TGI [17] was 23.7 µM, the GI50 [18] was 2.9 µM and the TGI [18] was 10.6 µM. For the same compound, the GI50 [19] was 12.4 µM, the TGI [19] was 46.2 µM and the GI50 [20] was 6.26 µM. For the same compound, the TGI [20] was 23.7 µM, the GI50 [21] was 1.19 µM and the TGI [21] was greater than 100 µM. The GI50 [22] was 4.19 µM, the TGI [22] was 24.8 µM and the GI50 [23] was 5.87 µM. The TGI [23] was 36.1 µM, the GI50 [24] was 5.59 µM and the TGI [24] was 90.3 µM. For the same compound, the GI50 [25] was 2.3 µM, the TGI [25] was 8.63 µM and the GI50 [26] was 4.34 µM. It also gave a TGI [26] of 50.1 µM, a GI50 [27] of 4.29 µM and a TGI [27] of 39.8 µM. It also gave a GI50 [28] of 4.61 µM, a TGI [28] of 30.6 µM and a GI50 [29] of 4.23 µM. It also gave a TGI [29] of 21.8 µM, a GI50 [30] of 4.52 µM and a TGI [30] of 26.2 µM. For the same compound, the GI50 [31] was 6.45 µM, the TGI [31] was 60.2 µM and the GI50 [32] was 3.82 µM. It also gave a TGI [32] of 26.4 µM, a GI50 [33] of 4.94 µM and a TGI [33] of 32 µM. It also gave a GI50 [34] of 2.4 µM, a TGI [34] of 15.4 µM and a GI50 [35] of 2.62 µM. For the same compound, the TGI [35] was 22.7 µM, the GI50 [36] was 3.11 µM and the TGI [36] was 12 µM. For the same compound, the GI50 [37] was 3.41 µM, the TGI [37] was greater than 100 µM and the GI50 [38] was 4.02 µM. It also gave a TGI [38] of 20.8 µM, a GI50 [39] of 1.29 µM and a TGI [39] of 19.5 µM. For the same compound, the GI50 [40] was 4.29 µM, the TGI [40] was 32.2 µM and the GI50 [41] was 4.61 µM. The TGI [41] was 84 µM, the GI50 [42] was 3.51 µM and the TGI [42] was greater than 100 µM. For the same compound, the GI50 [43] was 4.23 µM, the TGI [43] was 25.4 µM and the GI50 [44] was 3.57 µM. For the same compound, the TGI [44] was greater than 100 µM, the GI50 [45] was 2.66 µM and the TGI [45] was 12.4 µM. For the same compound, the GI50 [46] was 3.03 µM, the TGI [46] was 15.6 µM and the GI50 [47] was 6.81 µM. For the same compound, the TGI [47] was 22.2 µM, the GI50 [48] was 0.414 µM and the TGI [48] was 1.76 µM. The GI50 [49] was 2.81 µM, the TGI [49] was 13 µM and the GI50 [50] was 2.11 µM. For the same compound, the TGI [50] was 6.09 µM, the GI50 [51] was 3.95 µM and the TGI [51] was 30.2 µM. The GI50 [52] was 2.31 µM, the TGI [52] was 17.5 µM and the GI50 [53] was 4.37 µM. For the same compound, the TGI [53] was greater than 100 µM, the GI50 [54] was 3.36 µM and the TGI [54] was 19.8 µM. It also gave a GI50 [55] of 3.85 µM, a TGI [55] of 22.4 µM and a GI50 [56] of 2.86 µM. For the same compound, the TGI [56] was 18.7 µM, the GI50 [57] was 4.09 µM and the TGI [57] was 20.1 µM.
Compound `O=C(N/N=C/c1ccc([N+](=O)[O-])s1)c1[nH]c2ccc(Br)cc2c1-c1ccccc1` has a GI50 [1] of 0.354 µM, a TGI [1] of 9.22 µM and a GI50 [2] of 0.885 µM. The TGI [2] was 3.13 µM, the GI50 [3] was 1.07 µM and the TGI [3] was 16.6 µM. It also gave a GI50 [4] of 0.401 µM, a TGI [4] of 3.98 µM and a GI50 [5] of 0.596 µM. For the same compound, the TGI [5] was 12.2 µM, the GI50 [6] was 0.605 µM and the TGI [6] was 1.29 µM. It also gave a GI50 [7] of 0.578 µM, a TGI [7] of 1.14 µM and a GI50 [8] of 2.35 µM. For the same compound, the TGI [8] was greater than 91.3 µM, the GI50 [9] was 0.932 µM and the TGI [9] was greater than 50.9 µM. For the same compound, the GI50 [10] was 0.858 µM, the TGI [10] was 2.8 µM and the GI50 [11] was 0.851 µM. It also gave a TGI [11] of 4.61 µM, a GI50 [12] of 0.881 µM and a TGI [12] of 2.85 µM. The GI50 [13] was 0.365 µM, the TGI [13] was 14.2 µM and the GI50 [14] was 0.487 µM. The TGI [14] was 12.7 µM, the GI50 [15] was 0.706 µM and the TGI [15] was 2.72 µM. The GI50 [16] was 0.741 µM, the TGI [16] was greater than 32.4 µM and the GI50 [17] was 0.816 µM. For the same compound, the TGI [17] was 4.7 µM, the GI50 [18] was 1.06 µM and the TGI [18] was 9.86 µM. It also gave a GI50 [19] of 0.916 µM, a TGI [19] of 9.15 µM and a GI50 [20] of 0.787 µM. It also gave a TGI [20] of 2.12 µM, a GI50 [21] of 0.391 µM and a TGI [21] of 10.6 µM. For the same compound, the GI50 [22] was 0.747 µM, the TGI [22] was 2.67 µM and the GI50 [23] was 1.84 µM. It also gave a TGI [23] greater than 100 µM, a GI50 [24] of 1.07 µM and a TGI [24] of 12.9 µM. For the same compound, the GI50 [25] was 0.943 µM, the TGI [25] was 12.9 µM and the GI50 [26] was 0.458 µM. The GI50 [27] was 0.716 µM, the TGI [27] was 2.78 µM and the GI50 [28] was 1.14 µM. The TGI [28] was 27.2 µM, the GI50 [29] was 1.14 µM and the TGI [29] was greater than 55.4 µM. The GI50 [30] was 1.07 µM, the TGI [30] was 6.97 µM and the GI50 [31] was 2.97 µM. The TGI [31] was greater than 49.8 µM, the GI50 [32] was 0.716 µM and the TGI [32] was 3.03 µM. The GI50 [33] was 0.883 µM, the GI50 [34] was 0.115 µM and the TGI [34] was 0.535 µM. It also gave a GI50 [35] of 0.967 µM, a GI50 [36] of 0.515 µM and a TGI [36] of 1.51 µM. The GI50 [37] was 0.723 µM, the TGI [37] was 1.94 µM and the GI50 [38] was 0.769 µM. For the same compound, the TGI [38] was 2.54 µM, the GI50 [39] was 1.51 µM and the TGI [39] was greater than 26.1 µM. The GI50 [40] was 1.69 µM, the TGI [40] was greater than 53.5 µM and the GI50 [58] was 0.32 µM. It also gave a TGI [58] of 5.71 µM, a GI50 [41] of 1.63 µM and a TGI [41] greater than 46.9 µM. For the same compound, the GI50 [42] was 0.912 µM, the TGI [42] was 8.56 µM and the GI50 [43] was 1.3 µM. The TGI [43] was 19.2 µM, the GI50 [44] was 1.22 µM and the TGI [44] was 99.6 µM. The GI50 [45] was 0.627 µM, the TGI [45] was 2.03 µM and the GI50 [46] was 0.82 µM. The TGI [46] was 3.03 µM, the GI50 [47] was 0.995 µM and the TGI [47] was greater than 34.2 µM. For the same compound, the GI50 [48] was 0.323 µM, the TGI [48] was 0.918 µM and the GI50 [49] was 1.18 µM. The TGI [49] was 18.8 µM, the GI50 [50] was greater than 34.7 µM and the TGI [50] was greater than 92.1 µM. The GI50 [51] was 1.72 µM, the TGI [51] was 8.29 µM and the GI50 [52] was 1.04 µM. For the same compound, the TGI [52] was greater than 33.4 µM, the GI50 [53] was 0.756 µM and the TGI [53] was 2.08 µM. The GI50 [54] was 0.8 µM, the TGI [54] was 4.5 µM and the GI50 [55] was 0.768 µM. For the same compound, the TGI [55] was 8.53 µM, the GI50 [56] was 1.08 µM and the TGI [56] was 5.47 µM. It also gave a GI50 [57] of 0.961 µM and a TGI [57] greater than 32.3 µM.
